Patent publication US3992540A, “3-Quinoline-substituted 4-oxy-carboxamides” (Roussel-UCLAF, priority 1974, dated 1976)

What was measured:
[1] = tested on: stretchings provoked by intraperitoneal injection of acetic acid to mice; experiment: Analgesic activity, acetic acid stretching (writhing) test in mice (Koster et al); format: in vivo; conditions: Mus musculus, oral, 30 minutes before acetic acid injection (100 mg/kg i.p.), stretchings totaled over 15 minutes, read-out: DA50, dose which reduced by 50% the number of stretchings as compared to the controls
Experimental: The test was based on that of Koster et al [Fed. Proc., Vol. 18 (1959), p. 412] in which the intraperitoneal injection of acetic acid to mice provokes repeated stretching and twisting movements which persist for more than 6 hours. Analgesics prevent or suspress these syndromes which are considered to be an exteriorization of a diffuse abdominal pain. A 1% solution of acetic acid in water was used at a dose of 0.01 ml/g or 100 mg/kg of acetic acid to release the syndrome.
The test product was orally administered 30 minutes before the acetic acid injection and the mice were fasted for 24 hours before the start of the test. The stretchings for the mice were observed and totaled for each mouse in a 15 minutes observation period starting just after the acetic acid injection. The results were expressed as DA50, that dose which reduced by 50% the number of stretchings as compared to the controls and the DA50 for N-[2-thiazolyl]-4-hydroxy-8 -trifluoromethyl-3-quinoline-carboxamide was 5 mg/kg; for N-[2 -thiazolyl]-4-hydroxy-8-chloro-3-quinoline-carboxamide was 4 mg/kg; and for N-[2-thiazolyl]-4-hydroxy-7-trifluoromethyl- 3-quinoline-carboxamide was 7 mg/kg.

mice = conditions: mouse, in vivo, po, 500 mg/kg
[2] = Acute toxicity in mice, intraperitoneal; conditions: mouse, in vivo, ip, observed for a week, graphically determined by Miller et al method, read-out: DL50
Experimental: The acute toxicity was determined on groups of 10 mice weighing between 18-22 g and the test product was administered intraperitoneally in increasing dose in suspensions at 0.25 % in carboxymethyl-cellulose added of Tween 80.

Question: For `O=C(Nc1nccs1)c1cnc2c(Cl)cccc2c1O` [N-[2-thiazolyl]-4-hydroxy-8-chloro-3-quinoline-carboxamide], which ED50 [1] is on record?
Answer: Its ED50 is 4 mg/kg.

Question: For `O=C(Nc1nccs1)c1cnc2cc(C(F)(F)F)ccc2c1O` [N-[2-thiazolyl]-4-hydroxy-7-trifluoromethyl-3-quinoline-carboxamide], which ED50 [1] is on record?
Answer: Its ED50 is 7 mg/kg.

Question: For `O=C(Nc1nccs1)c1cnc2c(C(F)(F)F)cccc2c1O` [N-[2-thiazolyl]-4-hydroxy-8-trifluoromethyl-3-quinoline-carboxamide], which “tolerance when orally administered” value (mice) is on record?
Answer: Its value is “very well tolerated”.

Question: And the ED50 [1]?
Answer: Its ED50 is 5 mg/kg.

Question: And the LD50 at 168 h [2]?
Answer: Its LD50 at 168 h is 225 mg/kg.
